Assays:
[1] = xn = mol fraction of the nth substance listed; details: 298.15 K, 101.33 kPa, Liquid
[2] = excess molar enthalpy (molar enthalpy of mixing); xn = mol fraction of the nth substance listed; details: 298.15 K, 101.33 kPa, Liquid

ClCCCCl [1,3-dichloropropane] + CCCC(=O)OCC
Details | excess molar enthalpy [kcal/mol] | mass density [kg/m3]
[1], x2 = 0.0446 | – | 1159.59
[1], x2 = 0.088 | – | 1141.99
[1], x2 = 0.1341 | – | 1124.03
[1], x2 = 0.1825 | – | 1105.75
[1], x2 = 0.2294 | – | 1088.7
[1], x2 = 0.2836 | – | 1069.63
[1], x2 = 0.3377 | – | 1051.42
[1], x2 = 0.3924 | – | 1033.68
[1], x2 = 0.4475 | – | 1016.45
[1], x2 = 0.5058 | – | 998.9
[1], x2 = 0.5686 | – | 980.73
[1], x2 = 0.6322 | – | 963.09
[1], x2 = 0.6986 | – | 945.45
[1], x2 = 0.7724 | – | 926.66
[1], x2 = 0.8405 | – | 910.03
[2], x2 = 0.045 | -0.00619 | –
[2], x2 = 0.0966 | -0.0152 | –
[2], x2 = 0.1504 | -0.0234 | –
[2], x2 = 0.2076 | -0.0352 | –
[2], x2 = 0.2635 | -0.0452 | –
[2], x2 = 0.3171 | -0.0564 | –
[2], x2 = 0.3678 | -0.0673 | –
[2], x2 = 0.4155 | -0.0743 | –
[2], x2 = 0.4596 | -0.0781 | –
[2], x2 = 0.5012 | -0.0799 | –
[2], x2 = 0.5417 | -0.0797 | –
[2], x2 = 0.605 | -0.0778 | –
[2], x2 = 0.6754 | -0.071 | –
[2], x2 = 0.7523 | -0.0583 | –
[2], x2 = 0.8348 | -0.0428 | –
[2], x2 = 0.9216 | -0.0239 | –

ClCCCCCl [1,4-dichlorobutane] + CCOC=O
[1]
Details | mass density [kg/m3]
x2 = 0.0818 | 1119.67
x2 = 0.1583 | 1106.59
x2 = 0.2305 | 1093.6
x2 = 0.2967 | 1081.3
x2 = 0.3635 | 1068.33
x2 = 0.4271 | 1055.54
x2 = 0.491 | 1042.19
x2 = 0.6081 | 1016.39
x2 = 0.6615 | 1003.97
x2 = 0.7146 | 991.26
x2 = 0.7671 | 978.22
x2 = 0.816 | 965.61
x2 = 0.8633 | 952.97
x2 = 0.91 | 940.24
x2 = 0.9551 | 927.47

ClCCCCCCCl [1,6-dichlorohexane] + CCOC=O
[1]
Details | mass density [kg/m3]
x2 = 0.1021 | 1054.55
x2 = 0.1921 | 1045.86
x2 = 0.2781 | 1036.7
x2 = 0.357 | 1027.68
x2 = 0.4266 | 1019.06
x2 = 0.4923 | 1010.37
x2 = 0.5555 | 1001.35
x2 = 0.6677 | 983.71
x2 = 0.7169 | 975.18
x2 = 0.7649 | 966.4
x2 = 0.8091 | 957.78
x2 = 0.8515 | 949.08
x2 = 0.8915 | 940.41
x2 = 0.929 | 931.82
x2 = 0.9647 | 923.23

ClCCCCCCl [1,5-dichloropentane] + CCOC(C)=O
[1]
Details | mass density [kg/m3]
x2 = 0.078 | 1082.84
x2 = 0.1498 | 1071.08
x2 = 0.2187 | 1059.41
x2 = 0.2869 | 1047.48
x2 = 0.3508 | 1035.92
x2 = 0.4146 | 1024.01
x2 = 0.5355 | 1000.44
x2 = 0.5943 | 988.46
x2 = 0.6527 | 976.18
x2 = 0.7039 | 965.12
x2 = 0.7557 | 953.57
x2 = 0.8066 | 941.94
x2 = 0.8572 | 930.03
x2 = 0.9059 | 918.17
x2 = 0.9527 | 906.46

ClCCCCCl [1,4-dichlorobutane] + CCOC(=O)CC
[1]
Details | mass density [kg/m3]
x2 = 0.0587 | 1117.82
x2 = 0.1153 | 1103.37
x2 = 0.1718 | 1088.99
x2 = 0.2299 | 1074.24
x2 = 0.2859 | 1060.13
x2 = 0.3447 | 1045.32
x2 = 0.403 | 1030.76
x2 = 0.4615 | 1016.16
x2 = 0.5233 | 1000.86
x2 = 0.5825 | 986.22
x2 = 0.6382 | 972.47
x2 = 0.698 | 957.78
x2 = 0.8187 | 928.2
x2 = 0.8774 | 913.87
x2 = 0.9378 | 899.14

ClCCCCl [1,3-dichloropropane] + CCOC(=O)CC
[1]
Details | mass density [kg/m3]
x2 = 0.0533 | 1159.49
x2 = 0.1039 | 1141.98
x2 = 0.1552 | 1124.63
x2 = 0.2595 | 1090.43
x2 = 0.3141 | 1073.08
x2 = 0.3691 | 1056.04
x2 = 0.4264 | 1038.67
x2 = 0.4849 | 1021.36
x2 = 0.6033 | 987.47
x2 = 0.666 | 970.14
x2 = 0.7288 | 953.17
x2 = 0.7937 | 935.99
x2 = 0.861 | 918.65
x2 = 0.9271 | 901.62
